≈ marks a conversion by molar mass, not a printed value.
Key:
Staphylococcus aureus = assay: Antibacterial activity against Staphylococcus aureus ATCC 25923 after 20 to 24 hrs by broth microdilution method; format: functional
Pseudomonas aeruginosa = assay: Antibacterial activity against Pseudomonas aeruginosa ATCC 10145 after 20 to 24 hrs by broth microdilution method; format: functional
HCT-116 = assay: Antiproliferative activity against human HCT116 cells after 48 hrs by MTT assay; format: functional, cell-based; conditions: HCT-116, 48 h
Bacillus subtilis = assay: Antibacterial activity against Bacillus subtilis ATCC 11774 after 20 to 24 hrs by broth microdilution method; format: functional
HepG2 = assay: Antiproliferative activity against human HepG2 cells after 48 hrs by MTT assay; format: functional, cell-based; conditions: HepG2, 48 h
[1] = system: Staphylococcus epidermidis; assay: Antibacterial activity against Staphylococcus epidermidis ATCC 12228 after 20 to 24 hrs by broth microdilution method; format: functional
T47D = assay: Antiproliferative activity against human T47D cells after 48 hrs by MTT assay; format: functional, cell-based
Micrococcus luteus = assay: Antibacterial activity against Micrococcus luteus ATCC 10240 after 20 to 24 hrs by broth microdilution method; format: functional
Klebsiella pneumoniae = assay: Antibacterial activity against Klebsiella pneumoniae ATCC BAA-2146 after 20 to 24 hrs by broth microdilution method; format: functional
A549 = assay: Antiproliferative activity against human A549 cells after 48 hrs by MTT assay; format: functional, cell-based; conditions: A549, 48 h
Enterococcus faecalis = assay: Antibacterial activity against Enterococcus faecalis ATCC 51299 after 20 to 24 hrs by broth microdilution method; format: functional
Escherichia coli = assay: Antibacterial activity against Escherichia coli ATCC 10536 after 20 to 24 hrs by broth microdilution method; format: functional

Compound | MIC (Staphylococcus aureus) [µg/mL] | MIC (Pseudomonas aeruginosa) [µg/mL] | IC50 (HCT-116) [µM] | MIC (Bacillus subtilis) [µg/mL] | IC50 (HepG2) [µM] | MIC [1] [µg/mL] | IC50 (T47D) [µM] | MIC (Micrococcus luteus) [µg/mL] | MIC (Klebsiella pneumoniae) [µg/mL] | IC50 (A549) [µM] | MIC (Enterococcus faecalis) [µg/mL] | MIC (Escherichia coli) [µg/mL]
CC(C)CC[C@H](O)[C@@H]1C(=O)OC[C@H]1CO | 64 (≈ 296 µM) | 32 (≈ 148 µM) | 62.3 | 128 (≈ 592 µM) | > 100 | 128 (≈ 592 µM) | > 100 | 128 (≈ 592 µM) | 64 (≈ 296 µM) | 71.5 | 128 (≈ 592 µM) | 32 (≈ 148 µM)
CCCCOC(=O)c1ccccc1C(=O)OCC(C)C | > 128 | > 128 | 36.1 | > 128 | 53.3 | > 128 | 48.7 | > 128 | > 128 | 38 | > 128 | > 128
CC1=C2C(O)C(C(C)CO)CCC2(C)C=CC1=O (stereo unspecified) | 64 (≈ 256 µM) | 64 (≈ 256 µM) | 19.2 | 128 (≈ 511 µM) | 38.8 | > 128 | 26.7 | 128 (≈ 511 µM) | 32 (≈ 128 µM) | 22.3 | 128 (≈ 511 µM) | 32 (≈ 128 µM)
NCC[C@H](O)C(=O)N[C@@H]1C[C@H](N)[C@@H](O[C@H]2O[C@H](CN)[C@@H](O)[C@H](O)[C@H]2O)[C@H](O)[C@H]1O[C@H]1O[C@H](CO)[C@@H](O)[C@H](N)[C@H]1O [AMIKACIN] | 2.5 (≈ 4.27 µM) | 2.5 (≈ 4.27 µM) | – | 0.625 (≈ 1.07 µM) | – | 2.5 (≈ 4.27 µM) | – | 0.39 (≈ 0.666 µM) | 5 (≈ 8.54 µM) | – | 0.39 (≈ 0.666 µM) | 0.312 to 0.625 (≈ 0.533 to 1.07 µM)
O=c1[nH]cc(F)c(=O)[nH]1 [FLUOROURACIL] | – | – | 26.2 | – | 20.1 | – | 12.1 | – | – | 15.1 | – | –
C[C@H]1COc2c(N3CCN(C)CC3)c(F)cc3c(=O)c(C(=O)O)cn1c23.C[C@H]1COc2c(N3CCN(C)CC3)c(F)cc3c(=O)c(C(=O)O)cn1c23.O [LEVOFLOXACIN] | 0.078 to 0.156 | 0.312 to 0.625 | – | 0.39 | – | 0.039 to 0.078 | – | 0.078 | 2.5 to 5 | – | 0.156 | 0.078

From ChEMBL document CHEMBL4028820, “Novel bioactive molecules from Lentzea violacea strain AS 08 using one strain-many compounds (OSMAC) approach” (Bioorg Med Chem Lett, 2017)
